Test results: PubChem BioAssay AID330 (DTP/NCI, 2004)
Several values for one entry are separate records, joined by “and”; a condition that tells them apart may be missing. Equal values may be shown once. Inconclusive results and toxic doses are left out. How the source made its calls: active means survival T/C of 150% or more; inactive means T/C below 125% in these data.

System: P388 leukemia ip, CD2F1 mice, survival T/C
Test: NCI In Vivo Anticancer Drug Screen. Data for tumor model P388 Leukemia (intraperitoneal) in CD2F1 (CDF1) mice
Details: endpoint: median survival time, higher = longer survival
Method in brief: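 Mice carrying the transplanted tumor received test compound or vehicle. Survival was recorded in each group, and the value is the treated-group measurement divided by that of the vehicle-treated control group.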

[1] = dose: 60.0 mg/kg/injection, schedule: Q01DX005 (ip), vehicle: saline with Tween-80
[2] = dose: 25.0 mg/kg/injection, schedule: Q01DX009 (ip), vehicle: saline with Tween-80
[3] = dose: 50.0 mg/kg/injection, schedule: Q01DX009 (ip), vehicle: Klucel (hydroxypropylcellulose) (HPC)
[4] = dose: 50.0 mg/kg/injection, schedule: Q01DX009 (ip), vehicle: saline with Tween-80
[5] = dose: 100.0 mg/kg/injection, schedule: Q01DX009 (ip), vehicle: Klucel (hydroxypropylcellulose) (HPC)
[6] = dose: 100.0 mg/kg/injection, schedule: Q01DX009 (ip), vehicle: saline with Tween-80
[7] = dose: 200.0 mg/kg/injection, schedule: Q01DX009 (ip), vehicle: Klucel (hydroxypropylcellulose) (HPC)
[8] = dose: 200.0 mg/kg/injection, schedule: Q01DX009 (ip), vehicle: saline with Tween-80
[9] = dose: 50.0 mg/kg/injection, schedule: Q01DX005 (ip), vehicle: saline with Tween-80
[10] = dose: 100.0 mg/kg/injection, schedule: Q01DX005 (ip), vehicle: saline with Tween-80

Measured: T/C

C=CCN1C(=O)[N+](C)(C)N=C1[O-]
inactive: dose: 100.0 mg/kg/injection, schedule: Q04DX003 (ip), vehicle: saline 106 % of control | dose: 200.0 mg/kg/injection, schedule: Q04DX003 (ip), vehicle: saline 106 % of control | dose: 400.0 mg/kg/injection, schedule: Q04DX003 (ip), vehicle: saline 101 % of control

CC1(C)CO[Se](=O)OC1
inactive: dose: 3.13 mg/kg/injection, schedule: Q01DX009 (ip), vehicle: saline 114 % of control

CC(NC(=O)CN(C)C(=O)OCc1ccccc1)C(=O)O (configuration not stated)
inactive: dose: 50.0 mg/kg/injection, schedule: Q01DX005 (ip), vehicle: saline 102 % of control | dose: 100.0 mg/kg/injection, schedule: Q01DX005 (ip), vehicle: saline 96 % of control | dose: 200.0 mg/kg/injection, schedule: Q01DX005 (ip), vehicle: saline 100 % of control

C=C1C=CN(C(C)=O)C(OC(C)=O)C1SC(C)(C)C (configuration not stated)
inactive: [1] 97 % of control | dose: 120.0 mg/kg/injection, schedule: Q01DX005 (ip), vehicle: saline with Tween-80 95 % of control | dose: 240.0 mg/kg/injection, schedule: Q01DX005 (ip), vehicle: saline with Tween-80 97 % of control

O=C(Nc1ccccc1O)C1C(=O)C(=O)N(c2ccccc2O)C1=O (configuration not stated)
inactive: [2] 97 % of control | [3] 101 % of control and 105 % of control and 107 % of control | [4] 105 % of control | [5] 99 % of control and 101 % of control (2×) | [6] 97 % of control | [7] 106 % of control | [8] 102 % of control

Cc1ccc(OCC(O)CN2CCN(c3ccc(Cl)cc3)CC2)cc1 (configuration not stated)
inactive: dose: 100.0 mg/kg/injection, schedule: Q01DX009 (ip), vehicle: saline sonified 100 % of control | dose: 200.0 mg/kg/injection, schedule: Q01DX009 (ip), vehicle: saline sonified 95 % of control | dose: 400.0 mg/kg/injection, schedule: Q01DX009 (ip), vehicle: saline sonified 90 % of control

Nc1nc2c(c(=O)[nH]1)NC(CN(C=O)c1ccc(C(=O)NC(CCC(=O)O)C(=O)O)cc1)CC2 (configuration not stated)
inactive: dose: 50.0 mg/kg/injection, schedule: Q01DX001 (ip), vehicle: saline 99 % of control | dose: 100.0 mg/kg/injection, schedule: Q01DX001 (ip), vehicle: saline 100 % of control | dose: 200.0 mg/kg/injection, schedule: Q01DX001 (ip), vehicle: saline 91 % of control

CN1CC[C@@H](c2ccccc2)[C@@H](O)C1
inactive: [9] 97 % of control | [10] 100 % of control

CSC(=S)/C(=C/Nc1ncccn1)c1ccccc1
inactive: dose: 30.0 mg/kg/injection, schedule: Q01DX005 (ip), vehicle: Klucel (hydroxypropylcellulose) (HPC) 87 % of control | dose: 120.0 mg/kg/injection, schedule: Q01DX005 (ip), vehicle: Klucel (hydroxypropylcellulose) (HPC) 89 % of control

CC1=Nc2ccccc2C(=O)NN1
inactive: dose: 100.0 mg/kg/injection, schedule: Q04DX002 (ip), vehicle: saline with Tween-80 101 % of control | dose: 200.0 mg/kg/injection, schedule: Q04DX002 (ip), vehicle: saline with Tween-80 101 % of control | dose: 400.0 mg/kg/injection, schedule: Q04DX002 (ip), vehicle: saline with Tween-80 102 % of control

CC(=O)C(CSC(=O)c1ccccc1)C(C)=O
inactive: dose: 100.0 mg/kg/injection, schedule: Q04DX002 (ip), vehicle: Klucel (hydroxypropylcellulose) (HPC) 100 % of control | dose: 200.0 mg/kg/injection, schedule: Q04DX002 (ip), vehicle: Klucel (hydroxypropylcellulose) (HPC) 100 % of control

CCCCOP(=O)(OCCCC)OC(=C(F)F)C(F)(F)P(=O)(OCCCC)OCCCC
inactive: dose: 6.25 mg/kg/injection, schedule: Q01DX009 (ip), vehicle: Klucel (hydroxypropylcellulose) (HPC) 98 % of control | dose: 12.5 mg/kg/injection, schedule: Q01DX009 (ip), vehicle: Klucel (hydroxypropylcellulose) (HPC) 91 % of control | dose: 25.0 mg/kg/injection, schedule: Q01DX009 (ip), vehicle: Klucel (hydroxypropylcellulose) (HPC) 100 % of control

Cc1ccc(OP(=O)(Oc2ccc(C)cc2)Oc2ccc(C)cc2)cc1.Cc1ccc(OP(=O)(Oc2ccc(C)cc2)Oc2ccc(C)cc2)cc1.Cc1ccc(OP(=O)(Oc2ccc(C)cc2)Oc2ccc(C)cc2)cc1.Cc1ccc(OP(=O)(Oc2ccc(C)cc2)Oc2ccc(C)cc2)cc1.[Mn+2].[O-][Cl+3]([O-])([O-])O
inactive: dose: 10.0 mg/kg/injection, schedule: Q01DX001 (ip), vehicle: Klucel (hydroxypropylcellulose) (HPC) 101 % of control | dose: 20.0 mg/kg/injection, schedule: Q01DX001 (ip), vehicle: Klucel (hydroxypropylcellulose) (HPC) 94 % of control | dose: 40.0 mg/kg/injection, schedule: Q01DX001 (ip), vehicle: Klucel (hydroxypropylcellulose) (HPC) 99 % of control

N#CSc1c(-c2ccccc2)c2c(N)[nH]c(=O)nc2[nH]c1=O
inactive: dose: 15.0 mg/kg/injection, schedule: Q01DX005 (ip), vehicle: saline with Tween-80 107 % of control | dose: 30.0 mg/kg/injection, schedule: Q01DX005 (ip), vehicle: saline with Tween-80 99 % of control | [1] 90 % of control

c1cc(OCC2CO2)ccc1OCC1CO1 (configuration not stated)
inactive: dose: 12.5 mg/kg/injection, schedule: Q01DX009 (ip), vehicle: saline with Tween-80 95 % of control | [2] 96 % of control | [4] 113 % of control | [6] 108 % of control and 111 % of control | dose: 100.0 mg/kg/injection, schedule: Q04DX003 (ip), vehicle: saline sonified 100 % of control | [8] 108 % of control | dose: 200.0 mg/kg/injection, schedule: Q04DX003 (ip), vehicle: saline sonified 104 % of control | dose: 264.0 mg/kg/injection, schedule: Q04DX003 (ip), vehicle: saline with Tween-80 118 % of control | dose: 400.0 mg/kg/injection, schedule: Q01DX009 (ip), vehicle: saline with Tween-80 112 % of control | dose: 600.0 mg/kg/injection, schedule: Q04DX003 (ip), vehicle: saline with Tween-80 113 % of control

CC1(C)CCCC2(C)C1CCC13OC1(C=O)C(C=O)=CCC23 (configuration not stated)
inactive: dose: 1.25 mg/kg/injection, schedule: Q01DX005 (ip), vehicle: saline + alcohol 99 % of control | dose: 2.5 mg/kg/injection, schedule: Q01DX005 (ip), vehicle: saline + alcohol 98 % of control | dose: 5.0 mg/kg/injection, schedule: Q01DX005 (ip), vehicle: saline + alcohol 99 % of control | dose: 10.0 mg/kg/injection, schedule: Q01DX005 (ip), vehicle: saline + alcohol 99 % of control | dose: 20.0 mg/kg/injection, schedule: Q01DX005 (ip), vehicle: saline + alcohol 104 % of control

C(=C/c1nc2ccccc2nc1CCN1CCCCC1)/c1ccc2c(c1)OCO2
inactive: [9] 100 % of control | [10] 102 % of control | dose: 200.0 mg/kg/injection, schedule: Q01DX005 (ip), vehicle: saline with Tween-80 102 % of control

CCCCCCCCCCCCCN1CCS(=O)(=O)CC1
inactive: [3] 98 % of control | [5] 94 % of control | [7] 89 % of control

CC(C)(C)OC(=O)NNS(=O)(=O)CCC(NC(=O)OCc1ccccc1)C(=O)OCc1ccccc1 (configuration not stated)
inactive: dose: 12.5 mg/kg/injection, schedule: Q01DX009 (ip), vehicle: other 100 % of control | dose: 25.0 mg/kg/injection, schedule: Q01DX009 (ip), vehicle: other 97 % of control | dose: 50.0 mg/kg/injection, schedule: Q01DX009 (ip), vehicle: other 92 % of control | dose: 100.0 mg/kg/injection, schedule: Q01DX009 (ip), vehicle: other 88 % of control | dose: 200.0 mg/kg/injection, schedule: Q01DX009 (ip), vehicle: other 90 % of control
